For one compound, IC50 results are on record in patent publication US20230348475A1, “IMIDAZOPYRIDAZINE AND IMIDAZOPYRAZINE COMPOUNDS AS INHIBITORS OF CDK7” (THE TRANSLATIONAL GENOMICS RESEARCH INSTITUTE, priority 2020, published 2023).

pIC50: −log10 of the molar value. Bounds are passed on as bounds.

In experiment [1] the target is CDK7/CycH/MAT1 (Homo sapiens, UniProt P50613). The experiment can be described thus: Kinase Glo (ADP-Glo) biochemical assay, CDK7. The following applies: CDK7/CycH/MAT1 40 ng, ATP 1 μM, 60 minutes at RT, luminescence. The method, boiled down: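 Enzyme (40 ng), RB-CTF peptide substrate (200 ng or 400 ng) and 1 μM ATP reacted in HEPES pH 7.5 buffer with MgCl2, MnCl2, DTT and Na3VO4 for 60 min at RT. Ten-point compound dilutions were tested from 30 μM final. ADP formed was read by ADP-Glo luminescence.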
Chain of CDK7/CycH/MAT1 (P50613 whole entry): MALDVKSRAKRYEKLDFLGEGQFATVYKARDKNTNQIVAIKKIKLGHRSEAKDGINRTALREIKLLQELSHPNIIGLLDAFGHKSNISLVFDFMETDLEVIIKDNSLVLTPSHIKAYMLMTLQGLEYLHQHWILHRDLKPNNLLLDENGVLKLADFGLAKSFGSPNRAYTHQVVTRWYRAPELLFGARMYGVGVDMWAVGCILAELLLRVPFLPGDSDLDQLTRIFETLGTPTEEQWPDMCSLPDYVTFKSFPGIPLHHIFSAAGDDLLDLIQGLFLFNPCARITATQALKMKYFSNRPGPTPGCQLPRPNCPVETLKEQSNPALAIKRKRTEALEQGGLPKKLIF
Chain of CDK7/CycH/MAT1 (P51946 whole entry partner): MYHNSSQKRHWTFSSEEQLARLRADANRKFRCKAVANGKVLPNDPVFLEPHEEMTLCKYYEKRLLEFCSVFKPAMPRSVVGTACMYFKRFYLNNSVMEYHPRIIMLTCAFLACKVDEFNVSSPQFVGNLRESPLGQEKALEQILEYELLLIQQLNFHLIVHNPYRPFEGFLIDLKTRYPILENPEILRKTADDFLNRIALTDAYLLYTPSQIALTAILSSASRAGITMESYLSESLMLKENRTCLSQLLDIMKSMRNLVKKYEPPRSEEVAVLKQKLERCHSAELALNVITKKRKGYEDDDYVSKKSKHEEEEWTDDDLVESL
Chain of CDK7/CycH/MAT1 (P51948 whole entry partner): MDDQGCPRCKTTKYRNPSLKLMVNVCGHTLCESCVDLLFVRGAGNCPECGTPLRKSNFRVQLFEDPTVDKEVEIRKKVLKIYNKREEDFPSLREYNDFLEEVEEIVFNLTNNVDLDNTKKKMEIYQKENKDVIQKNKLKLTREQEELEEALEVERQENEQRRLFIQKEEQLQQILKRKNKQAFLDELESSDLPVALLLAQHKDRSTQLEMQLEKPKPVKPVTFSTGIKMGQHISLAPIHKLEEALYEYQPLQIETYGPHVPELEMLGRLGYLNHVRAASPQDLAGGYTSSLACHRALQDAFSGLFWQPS

The test system of experiment [2] is MiaPaCa2 pancreatic cancer cell line. The experiment can be described thus: Cell viability assay (Cell Titer Glo), MiaPaCa2. Format: cell-based. As to conditions: Homo sapiens, MIA PaCa-2; Table 7b; 72 hour incubation; read-out: IC50 MIA PaCa2. The protocol: (§1) Materials: • Cell Lines (Treated according to ATCC guidelines) • Cell Titer Glo (Promega Cat #G7572) • DMSO • 96-well White Tissue Culture Treated Plates (Perkin Elmer Cat #60005680)
(§2) Cells were seeded in a white 96-well tissue culture treated plate at a density of 1500 cells in 90 μL of media per well and allowed to settle overnight. A ten point serial dilution of drugs was prepared at 10×concentration in media with the final assay concentrations starting at 30 μM, 10 μM, 3 μM, 1 μM, 0.3 μM . . . 0 μM. A dilution of DMSO was included as a control. The assay was set up by adding 10 μL of the corresponding drug to each well in duplicate, followed by a 72 hour incubation at 37° C., 5% CO2. Cell viability was quantified by adding 90 μL of Cell Titer Glo to each well and incubating at room temperature for 10 minutes. The reaction was quantified by measuring luminescence using the Envision Plate Reader. Data was analyzed using Graphpad Prism 7 software.
In general terms: In ATP-based viability assays light output follows the ATP content of the culture.

Experiment [3] concerns HPAC pancreatic cancer cell line. Kind of experiment: Cell viability assay (Cell Titer Glo), HPAC. It counts as cell-based. As to conditions: Homo sapiens, HPAC; Table 7b; 72 hour incubation. The protocol: as §1, §2
Experiment [4] relates to MDA-MB-231 breast cancer cell line. The experiment can be described thus: Cell viability assay (Cell Titer Glo), MDA-MB-231. It counts as cell-based. As to conditions: Homo sapiens, MDA-MB-231; Table 7b; 72 hour incubation; read-out: IC50 MDA-MB231. The protocol: as §1, §2
The subject of experiment [5] is MDA-MB436 cells. Kind of experiment: Cell viability assay (Cell Titer Glo), MDA-MB436. Format: cell-based. The following applies: Homo sapiens, MDA-MB-436; Table 7b; 72 hour incubation. The protocol: as §2, with “Cell Viability Assay Materials: • Cell Lines (Treated according to ATCC guidelines) • Cell Titer Glo (Promega Cat #G7572) • DMSO • 96-well White Tissue Culture Treated Plates (Perkin Elmer Cat #60005680) Method: Cells” for “Cells”, “μ[…]” for “μM, 10 μM, 3 μM, 1 μM, 0.3 μM . . . 0 μM. A”

The test system of experiment [6] is MDA-MB468 cells. Kind of experiment: Cell viability assay (Cell Titer Glo), MDA-MB468. Format: cell-based. As to conditions: Homo sapiens, MDA-MB-468; Table 7b; 72 hour incubation. The protocol:
as §2, with “Cell Viability Assay Materials: • Cell Lines (Treated according to ATCC guidelines) • Cell Titer Glo (Promega Cat #G7572) • DMSO • 96-well White Tissue Culture Treated Plates (Perkin Elmer Cat #60005680) Method: Cells” for “Cells”, “μ[…]” for “μM, 10 μM, 3 μM, 1 μM, 0.3 μM . . . 0 μM. A”

As usually defined, the IC50 is the concentration that inhibits the measured activity by half. A low value points to greater potency. The pIC50 is the IC50 on a negative log10 scale, so that one unit is a factor of ten. In turn, `Fc1cccc(Nc2cc(O[C@H]3CCCNC3)nn3c(C4CC4)cnc23)c1` [Compound I-1] registered an IC50 in experiment [1] of under 100 nM. Moreover, the pIC50 in experiment [2] is over 6.00; in experiment [3], 5.30 to 6.00; in experiment [4], 5.30 to 6.00; in experiment [5], 5.30 to 6.00; in experiment [6] it was 5.30 to 6.00.
